Laboratory results published in patent US7713971B2, “1,2,4-triazine derivatives, preparation and use thereof in human therapy” (Pierre Fabre Medicament, priority 2005, dated 2010).
pEC50: −log10 of the molar value.

Biological target: T1, human PPARα (Homo sapiens, UniProt Q07869)
T1 construct: expressed in transfected cells; host or cells: Cos-7 cells (ATCC, CRL-1651)
T1 sequence (Q07869 239-466 limits assumed): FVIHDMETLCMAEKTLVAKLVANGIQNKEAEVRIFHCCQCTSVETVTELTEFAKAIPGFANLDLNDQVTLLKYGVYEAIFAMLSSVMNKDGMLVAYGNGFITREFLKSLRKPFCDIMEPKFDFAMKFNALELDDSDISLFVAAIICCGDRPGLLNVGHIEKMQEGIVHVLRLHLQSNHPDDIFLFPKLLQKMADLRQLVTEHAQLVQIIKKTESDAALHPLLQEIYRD
Experiment: Reporter gene transactivation, hPPAR-GAL4 alpha
Format: cell-based
Conditions: transfected Cos-7 cells, Gal-4 luciferase reporter, 24 hours treatment

Row | pEC50 | SMILES
1 | ~6.52 | CCOC(=O)C(C)(C)Oc1cccc(CCCOc2nn(C)c(=O)n(CCCC(F)(F)F)c2=O)c1 [Example 6, Ethyl 2-methyl-2-(3-{3-[2-methyl-3,5-dioxo-4-(4,4,4-trifluoro-butyl)-2,3,4,5-tetrahydro-[1,2,4]triazin-6-yloxy]-propyl}-phenoxy)-propionate]
2 | ~6.00 | CCCCCCCn1c(=O)c(NCCc2ccc(OC(C)(C)C(=O)OCC)cc2)nn(CCCC(F)(F)F)c1=O [Example 107, Ethyl 2-(4-{2-[4-heptyl-3,5-dioxo-2-(4,4,4-trifluoro-butyl)-2,3,4,5-tetrahydro-[1,2,4]triazin-6-ylamino]-ethyl}-phenoxy)-2-methyl-propionate]
3 | < 5.00 | CCOC(=O)C(C)(C)Oc1ccccc1CCNc1nn(CCCC(F)(F)F)c(=O)n(CCCC(F)(F)F)c1=O [Example 55, Ethyl 2-(2-{2-[3,5-Dioxo-2,4-bis-(4,4,4-trifluoro-butyl)-2,3,4,5-tetrahydro-[1,2,4]triazin-6-ylamino]-ethyl}-phenoxy)-2-methyl-propionate]
4 | < 5.00 | CCCCCCCn1c(=O)c(NCCc2cccc(OC(C)(C)C(=O)OCC)c2)nn(CCCC(F)(F)F)c1=O [Example 60, Ethyl 2-(3-{2-[4-heptyl-3,5-dioxo-2-(4,4,4-trifluoro-butyl)-2,3,4,5-tetrahydro-[1,2,4]triazin-6-ylamino]-ethyl}-phenoxy)-2-methyl-propionate]
5 | ~5.52 | CCOC(=O)C(C)(C)Oc1cccc(CCOc2nn(C)c(=O)n(CCCC(F)(F)F)c2=O)c1 [Example 3, Ethyl 2-methyl-2-(3-{2-[2-methyl-3,5-dioxo-4-(4,4,4-trifluoro-butyl)-2,3,4,5-tetrahydro-[1,2,4]triazin-6-yloxy]-ethyl}-phenoxy)-propionate]
6 | < 5.00 | CCOC(=O)C(C)(C)Oc1cccc(CCCOc2nn(CCCC(F)(F)F)c(=O)n(C)c2=O)c1 [Example 4, Ethyl 2-methyl-2-(3-{3-[4-methyl-3,5-dioxo-2-(4,4,4-trifluoro-butyl)-2,3,4,5-tetrahydro-[1,2,4]triazin-6-yloxy]-propyl}-phenoxy)-propionate]
7 | < 5.00 | CCCCCCCn1c(=O)c(OCCc2ccc(OC(C)(C)C(=O)OCC)cc2)nn(C)c1=O [Example 26, Ethyl 2-{4-[2-(4-heptyl-2-methyl-3,5-dioxo-2,3,4,5-tetrahydro-[1,2,4]triazin-6-yloxy)-ethyl]-phenoxy}-2-methyl-propionate]
8 | ~5.00 | CCCCCCCn1c(=O)c(N(CCc2ccccc2)CCc2ccc(OC(C)(C)C(=O)OCC)cc2)nn(C)c1=O [Example 116, Ethyl 2-(4-{2-[(4-heptyl-2-methyl-3,5-dioxo-2,3,4,5-tetrahydro-[1,2,4]triazin-6-yl)-phenethyl-amino]-ethyl}-phenoxy)-2-methyl-propionate]
9 | < 5.00 | CCOC(=O)C(C)(C)Oc1ccc(CCOc2nn(CCCC(F)(F)F)c(=O)n(C)c2=O)cc1 [Example 24, Ethyl 2-methyl-2-(4-{2-[4-methyl-3,5-dioxo-2-(4,4,4-trifluoro-butyl)-2,3,4,5-tetrahydro-[1,2,4]triazin-6-yloxy]-ethyl}-phenoxy)-propionate]
10 | < 5.00 | CCOC(=O)C(C)(C)Oc1cccc(CCNc2nn(C)c(=O)n(CCCC(F)(F)F)c2=O)c1 [Example 58, Ethyl 2-methyl-2-(3-{2-[2-methyl-3,5-dioxo-4-(4,4,4-trifluoro-butyl)-2,3,4,5-tetrahydro-[1,2,4]triazin-6-ylamino]-ethyl}-phenoxy)-propionate]
11 | ~5.00 | CCOC(=O)C(C)(C)Oc1ccc(CCCCOc2nn(CCCC(F)(F)F)c(=O)n(C)c2=O)cc1 [Example 28, Ethyl 2-methyl-2-(4-{4-[4-methyl-3,5-dioxo-2-(4,4,4-trifluoro-butyl)-2,3,4,5-tetrahydro-[1,2,4]triazin-6-yloxy]-butyl}-phenoxy)-propionate]
12 | < 5.00 | CCCCCCCn1nc(NCCc2ccc(OC(C)(C)C(=O)OCC)cc2)c(=O)n(CCCCCCC)c1=O [Example 108, Ethyl 2-{4-[2-(2,4-diheptyl-3,5-dioxo-2,3,4,5-tetrahydro-[1,2,4]triazin-6-ylamino)-ethyl]-phenoxy}-2-methyl-propionate]
13 | 5.52 to 6.00 | CCCCCCCn1nc(NCCCCc2cccc(SC(C)(C)C(=O)OCC)c2)c(=O)n(Cc2ccccc2)c1=O [Example 101, Ethyl 2-{3-[4-(4-benzyl-2-heptyl-3,5-dioxo-2,3,4,5-tetrahydro-[1,2,4]triazin-6-ylamino)-butyl]-phenylsulfanyl}-2-methyl-propionate]
14 | < 5.00 | Cn1nc(NCCCCc2cccc(OC(C)(C)C(=O)OC(C)(C)C)c2)c(=O)n(CCCC(F)(F)F)c1=O [Example 78, Tert-butyl 2-methyl-2-(3-{4-[2-methyl-3,5-dioxo-4-(4,4,4-trifluoro-butyl)-2,3,4,5-tetrahydro-[1,2,4]triazin-6-ylamino]-butyl}-phenoxy)-propionate]
15 | < 5.00 | CCOC(=O)C(C)(C)Oc1ccc(CCNc2nn(CCCC(F)(F)F)c(=O)n(C)c2=O)cc1 [Example 102, Ethyl 2-methyl-2-(4-{2-[4-methyl-3,5-dioxo-2-(4,4,4-trifluoro-butyl)-2,3,4,5-tetrahydro-[1,2,4]triazin-6-ylamino]-ethyl}-phenoxy)-propionate]
16 | ~5.52 | CCCCCCCn1c(=O)c(NCCc2cccc(SC(C)(C)C(=O)OCC)c2)nn(C)c1=O [Example 61, Ethyl 2-{3-[2-(4-heptyl-2-methyl-3,5-dioxo-2,3,4,5-tetrahydro-[1,2,4]triazin-6-ylamino)-ethyl]-phenylsulfanyl}-2-methyl-propionate]
17 | 6.00 | CCCCCCCn1c(=O)c(OCc2ccc(OC(C)(C)C(=O)OCC)cc2)nn(CCCC(F)(F)F)c1=O [Example 23, Ethyl 2-{4-[4-heptyl-3,5-dioxo-2-(4,4,4-trifluoro-butyl)-2,3,4,5-tetrahydro-[1,2,4]triazin-6-yloxymethyl]-phenoxy}-2-methyl-propionate]
18 | ~6.00 | CCOC(=O)C(C)(C)Oc1cccc(CCCNc2nn(CCCC(F)(F)F)c(=O)n(Cc3ccccc3)c2=O)c1 [Example 71, Ethyl 2-(3-{3-[4-benzyl-3,5-dioxo-2-(4,4,4-trifluoro-butyl)-2,3,4,5-tetrahydro-[1,2,4]triazin-6-ylamino]-propyl}-phenoxy)-2-methyl-propionate]
19 | ~5.52 | CCOC(=O)C(C)(C)Oc1ccc(OCCNc2nn(CCCC3CCCCC3)c(=O)n(CCCC3CCCCC3)c2=O)cc1 [Example 43, Ethyl 2-(4-{2-[2,4-bis-(3-cyclohexylpropyl)-3,5-dioxo-2,3,4,5-tetrahydro-[1,2,4]triazin-6-ylamino]-ethoxy}-phenoxy)-2-methyl-propionate]
20 | < 5.00 | CCCCCCCn1nc(NCCCCc2cccc(SC(C)(C)C(=O)OCC)c2)c(=O)n(CCCCCCC)c1=O [Example 98, Ethyl 2-{3-[4-(2,4-diheptyl-3,5-dioxo-2,3,4,5-tetrahydro-[1,2,4]triazin-6-ylamino)-butyl]-phenylsulfanyl}-2-methyl-propionate]
21 | 5.00 to 5.52 | CCOC(=O)C(C)(C)Oc1ccc(COc2nn(C)c(=O)n(CCCC(F)(F)F)c2=O)cc1 [Example 21, Ethyl 2-methyl-2-{4-[2-methyl-3,5-dioxo-4-(4,4,4-trifluoro-butyl)-2,3,4,5-tetrahydro-[1,2,4]triazin-6-yloxymethyl]-phenoxy}-propionate]
22 | 5.00 to 5.52 | CCCCn1c(=O)c(OCCc2ccccc2OC(C)(C)C(=O)OCC)nn(C)c1=O [Example 1, Ethyl 2-{2-[2-(4-butyl-2-methyl-3,5-dioxo-2,3,4,5-tetrahydro-[1,2,4]triazin-6-yloxy)-ethyl]-phenoxy}-2-methyl-propionate]
23 | 5.52 to 6.00 | CCCCCCCn1nc(OCCCc2cccc(SC(C)(C)C(=O)OCC)c2)c(=O)n(C)c1=O [Example 32, Ethyl 2-{3-[3-(2-heptyl-4-methyl-3,5-dioxo-2,3,4,5-tetrahydro-[1,2,4]triazin-6-yloxy)-propyl]-phenylsulfanyl}-2-methyl-propionate]
24 | ~5.00 | CCCCCCCn1c(=O)c(N(CCCc2ccccc2)CCc2ccc(OC(C)(C)C(=O)OCC)cc2)nn(C)c1=O [Example 117, Ethyl 2-(4-{2-[(4-heptyl-2-methyl-3,5-dioxo-2,3,4,5-tetrahydro-[1,2,4]triazin-6-yl)-(3-phenyl-propyl)-amino]-ethyl}-phenoxy)-2-methyl-propionate]
25 | < 5.00 | CCOC(=O)C(C)(C)Oc1cccc(CCCNc2nn(CCCC(F)(F)F)c(=O)n(C)c2=O)c1 [Example 62, Ethyl 2-methyl-2-(3-{3-[4-methyl-3,5-dioxo-2-(4,4,4-trifluoro-butyl)-2,3,4,5-tetrahydro-[1,2,4]triazin-6-ylamino]-propyl}-phenoxy)-propionate]
26 | 5.52 to 6.00 | CCCCCCCn1c(=O)c(NCCCCc2cccc(SC(C)(C)C(=O)OCC)c2)nn(CCCC(F)(F)F)c1=O [Example 97, Ethyl 2-(3-{4-[4-heptyl-3,5-dioxo-2-(4,4,4-trifluoro-butyl)-2,3,4,5-tetrahydro-[1,2,4]triazin-6-ylamino]-butyl}-phenylsulfanyl)-2-methyl-propionate]
27 | ~5.00 | CCOC(=O)C(C)(C)Oc1ccc(CCN(CCc2ccccc2)c2nn(C)c(=O)n(C)c2=O)cc1 [Example 114, Ethyl 2-(4-{2-[(2,4-dimethyl-3,5-dioxo-2,3,4,5-tetrahydro-[1,2,4]triazin-6-yl)-phenethyl-amino]-ethyl}-phenoxy)-2-methyl-propionate]
28 | < 5.00 | CCOC(=O)C(C)(C)Sc1cccc(CCCCNc2nn(CCCC(F)(F)F)c(=O)n(C)c2=O)c1 [Example 93, Ethyl 2-methyl-2-(3-{4-[4-methyl-3,5-dioxo-2-(4,4,4-trifluoro-butyl)-2,3,4,5-tetrahydro-[1,2,4]triazin-6-ylamino]-butyl}-phenylsulfanyl)-propionate]
